Patent US7186824B2, “Reduction inhibitory agent for active-oxygen eliminating activity” (Kabushiki Kaisha Hayashibara Seibutsu Kagaku Kenkyujo, priority 1997, dated 2007)

What was measured:
Assay type in all cases: biochemical
[1] = Active-oxygen eliminating activity of superoxide dismutase and antioxidants in water or trehalose solution before/after storage (NBT test); conditions: for Activity (unit/mg antioxidant) Before storage: in trehalose solution, trehalose concentration 45%; for Activity (unit/mg antioxidant) After storage: light-shielded
Experimental: (§1) Fresh raw carrots were disrupted by a mixer, and 10% of either of saccharides, d.s.b., was added to the mixture and dissolved therein. The solution was dried under reduced pressures at 40° C. for two days, dried in vacuo at the same temperature for 24 hours, and pulverized by a mixer into a powdery carrot composition. The saccharides used were commercialized reagents of glucose, mannitol, sorbitol, maltose, sucrose, trehalose, and pullulan. An about 100 g of the composition was placed and sealed in a 500-ml polystyrene container, and stored at 40° C. for seven days. The active-oxygen eliminating activity of the composition before and after the storage were compared. The assay for the active-oxygen eliminating activity followed the nitroblue tetrazolium test by Toshio IMANARI et at in Igakuno Ayumi, Vol. 101, pp. 496–497 (1977); the level of superoxide, formed in a xanthine-xanthine oxidase system, was assayed by quantifying calorimetrically the content of formazan formed by reducing NBT. As a control, refined water was used as a test solution. One unit activity of active-oxygen eliminating activity is defined as that inhibits 50% formazan formation as compared with the control. […] The reduction inhibitory activity of trehalose was strongly higher than that of glucose as the constituent saccharide for trehalose, and that of maltose as a disaccharide consisting of two glucose units similar to trehalose. Thus trehalose is suitably used as an effective ingredient for a reduction inhibitory agent for active-oxygen eliminating activity.
In one milliliter of a 45 w/v % trehalose solution was dissolved five micrograms of superoxide dismutase from a horseradish-commercialized by Sigma Chemical Co., St. Louise, USA, 10 mg α-glucosyl hesperidin commercialized by Hayashibara Biochemical Laboratories, Inc., Okayama, Japan, 10 mg α-glucosyl rutin commercialized by Hayashibara Biochemical Laboratories, Inc., Okayama, Japan, 250 μg gallic acid commercialized by Wako Pure Chemical Industries, Ltd., Tokyo, Japan, or 50 μg catechin to obtain a liquid composition. Each of the compositions was placed in a glass test tube, sealed with a rubber cap, and stored under light-shielded conditions. As a control, water was used in place of the trehalose solution. […] Mere mixing of a powdery crystalline trehalose hydrate and either of the powdery antioxidants into a powdery mixture, almost no change of the active-oxygen eliminating activity was observed when subjected to storage test similarly as above.

[2] = Influence of saccharides on active-oxygen eliminating activity of powdery carrot composition before/after storage (NBT test); conditions: compared among the saccharides tested, 40° C. seven days
Experimental: Fresh raw carrots were disrupted by a mixer, and 10% of either of saccharides, d.s.b., was added to the mixture and dissolved therein. The solution was dried under reduced pressures at 40° C. for two days, dried in vacuo at the same temperature for 24 hours, and pulverized by a mixer into a powdery carrot composition. The saccharides used were commercialized reagents of glucose, mannitol, sorbitol, maltose, sucrose, trehalose, and pullulan. An about 100 g of the composition was placed and sealed in a 500-ml polystyrene container, and stored at 40° C. for seven days. The active-oxygen eliminating activity of the composition before and after the storage were compared. The assay for the active-oxygen eliminating activity followed the nitroblue tetrazolium test by Toshio IMANARI et at in Igakuno Ayumi, Vol. 101, pp. 496–497 (1977); the level of superoxide, formed in a xanthine-xanthine oxidase system, was assayed by quantifying calorimetrically the content of formazan formed by reducing NBT. As a control, refined water was used as a test solution. One unit activity of active-oxygen eliminating activity is defined as that inhibits 50% formazan formation as compared with the control. […]

[3] = Influence of trehalose concentration on active-oxygen eliminating activity of powdery carrot composition before/after storage (NBT test); conditions: for Activity (unit/g) After storage / Percentage of residual activity (%): 40° C. for seven days; for Activity (unit/g) Before storage: powdery carrot composition
Experimental: as §1
Similarly as in Experiment 1, 0–20% of trehalose, d.s.b., was mixed with and dissolved in a disrupted carrot. The resulting each mixture was dried in vacuo at 40° C. for 24 hours, and pulverized into a powdery carrot composition. Similarly as in Experiment 1, each powdery composition was placed and sealed in a polystyrene container, and stored at 40° C. for seven days for evaluating the reduction inhibitory activity for active-oxygen eliminating activity. […] Based on the data from Table 2, at least of about one percent, preferably, at least of about five percent, and more preferably, at least of about 20% of trehalose, d.s.b., exerted a desired effective reducing inhibitory activity for active-oxygen eliminating activity.

[4] = trehalose 0%, stored 80° C. 5 days
[5] = trehalose 45%, stored 80° C. 5 days
[6] = 0.1% trehalose added to carrot (content 1.0% d.s.b.)
[7] = 0.5% trehalose added to carrot (content 4.9% d.s.b.)
[8] = 1.0% trehalose added to carrot (content 9.4% d.s.b.)
[9] = 2.5% trehalose added to carrot (content 20.7% d.s.b.)
[10] = 5.0% trehalose added to carrot (content 34.2% d.s.b.)
[11] = 10.0% trehalose added to carrot (content 51.1% d.s.b.)
[12] = 20.0% trehalose added to carrot (content 67.6% d.s.b.)
[13] = trehalose 45%, stored 25° C. 20 hours

O=C(O)c1cc(O)c(O)c(O)c1 [Gallic acid, gallic acid]
Activity (unit/mg antioxidant) Before storage [1]: 570 unit/mg antioxidant
Activity (unit/mg antioxidant) After storage [1, 4]: 390 unit/mg antioxidant
Residual activity (%) [1, 5]: 82%
Activity (unit/mg antioxidant) After storage [1, 5]: 470 unit/mg antioxidant

OC[C@H]1O[C@H](O[C@H]2O[C@H](CO)[C@@H](O)[C@H](O)[C@H]2O)[C@H](O)[C@@H](O)[C@@H]1O [Trehalose, α,α-trehalose]
reduction inhibitory activity for active-oxygen eliminating activity (in words) [2]: strong effect
Activity (unit/g) After storage [3, 6]: 400 unit/g
Percentage of residual activity (%) [3, 6]: 43%
Activity (unit/g) After storage [3, 7]: 460 unit/g
Percentage of residual activity (%) [3, 7]: 61%
Activity (unit/g) After storage [3, 8]: 480 unit/g
Percentage of residual activity (%) [3, 8]: 56%
Activity (unit/g) After storage [3, 9]: 460 unit/g
Activity (unit/g) After storage [3, 10]: 370 unit/g
Percentage of residual activity (%) [3, 10]: 62%
Activity (unit/g) After storage [3, 11]: 330 unit/g
Percentage of residual activity (%) [3, 11]: 83%
Activity (unit/g) After storage [3, 12]: 240 unit/g
Percentage of residual activity (%) [3, 12]: 63%
Activity (unit/g) Before storage [3, 6]: 930 unit/g
Activity (unit/g) Before storage [3, 7]: 750 unit/g
Activity (unit/g) Before storage [3, 8]: 860 unit/g
Activity (unit/g) Before storage [3, 9]: 700 unit/g
Activity (unit/g) Before storage [3, 10]: 600 unit/g
Activity (unit/g) Before storage [3, 11]: 400 unit/g
Activity (unit/g) Before storage [3, 12]: 380 unit/g

Superoxide dismutase
Activity (unit/mg antioxidant) Before storage [1]: 11,000 unit/mg antioxidant
Activity (unit/mg antioxidant) After storage ([1]; trehalose 0%, stored 60° C. 17 hours): 4,600 unit/mg antioxidant
Activity (unit/mg antioxidant) After storage ([1]; trehalose 45%, stored 60° C. 17 hours): 9,400 unit/mg antioxidant

catechin
Activity (unit/mg antioxidant) Before storage [1]: 380 unit/mg antioxidant
Activity (unit/mg antioxidant) After storage ([1]; trehalose 0%, stored 25° C. 20 hours): 2.2 unit/mg antioxidant
Residual activity (%) [1, 13]: 82%
Activity (unit/mg antioxidant) After storage [1, 13]: 310 unit/mg antioxidant

α-glucosyl hesperidin
Activity (unit/mg antioxidant) Before storage [1]: 3.6 unit/mg antioxidant
Activity (unit/mg antioxidant) After storage [1, 4]: 1.0 unit/mg antioxidant
Residual activity (%) [1, 5]: 67%
Activity (unit/mg antioxidant) After storage [1, 5]: 2.4 unit/mg antioxidant

α-glucosyl rutin
Activity (unit/mg antioxidant) After storage [1, 4]: 18 unit/mg antioxidant
Activity (unit/mg antioxidant) After storage [1, 5]: 22 unit/mg antioxidant
